“Also recorded” adds a separate entry of the source.
Experiments:
[1] = system: whole blood from CIA rats; test: Ex vivo LPS-stimulated cytokines in whole blood from CIA rats; parameters: species or system rat; details: 0.3 mg/kg i.v. twice daily (day 20 sample: 1 mg/kg orally twice daily) from day 8; 10 ng/mL LPS, 4 hours
Description: Female Lewis rats were anesthetized with 3-5% isoflurane and arthritis was induced by intradermal injection of 0.3 mL (100 μL at three different sites) of an emulsion […] 1.5 mg/mL of type II bovine collagen, CII (Elastin Products Inc., Cat# CM276), in incomplete Freund's adjuvant (IFA) at the base of the tail on day 0 and 6. Control rats were injected with an equal amount of IFA only.
were measured under two different treatment regimens. In the first (prophylactic) treatment regimen, Compound X was administered i.v., twice daily, at 0.3 mg/kg from day 0 to day 6 or 10. For ex vivo studies, animals were euthanized on day 6 after the last injection and their inguinal lymph nodes were harvested. […] For ex vivo studies, animals were euthanized on day 16 and inguinal lymph nodes were harvested. Venous blood samples were collected during the course of treatment. For CD3 activation, 96-well flat bottom plates were coated with anti-CD3 mAb (eBioscience, clone G4.18) 1 μg/mL. Plates were stored overnight at 4° C., and were subsequently rinsed with PBS once before use. […] All data were processed and analyzed by t-test using GraphPad Prism software.
To measure the effect of Compound X on blood cells, rat whole blood samples were taken on day 8, 10, 13, 16 and 20 (n=3-6). […] After 4 hours in culture, supernatants were collected and cytokine levels measured by Bioplex.

[2] = system: mice with established Type II collagen arthritis; test: Male DBA/1J mouse established Type II collagen arthritis; assay type: in vivo
Description: Male DBA/1J mice (7-9 weeks old on arrival; at least 7 weeks old at time of first immunization) were housed 5 per cage and were acclimated for enough days after arrival such that all animals were at least 7 weeks old at start of study.
Mice were anesthetized with Isoflurane and given intradermal collagen (2 mg/ml) injections at the base of the tail in a volume of 150 μl (D0 and D21). On days 21-35, onset of arthritis occurred and mice were randomized into treatment groups. Randomization into each group was done after swelling was obviously established in at least one paw, and attempts were made to assure approximately equal mean scores across the groups at time of enrollment. Treatment was initiated after enrollment and continued every day for a total of 10 days as outlined in Table 3. During the ten days of treatment, clinical scores were given for each of the paws (right front, left front, right rear, and left rear) according to the scoring methods provided below. […]
• 0 Normal • 1 Minimal—small areas of resorption, not readily apparent on low magnification, rare osteoclasts in affected joints • 2 Mild—more numerous areas of resorption, not readily apparent on low magnification, osteoclasts more numerous in affected joints • 3 Moderate—obvious resorption of medullary trabecular and cortical bone without full thickness defects in cortex, loss of some medullary trabeculae, lesion apparent on low magnification, osteoclasts more numerous in affected joints • 4 Marked—Full thickness defects in cortical bone, often with distortion of profile of remaining cortical surface, marked loss of medullary bone, numerous osteoclasts, affects most joints • Severe—Full thickness defects in cortical bone and destruction of joint architecture of all joints
Histologic parameters (mean±SE) for each group were analyzed for differences using the Chi Square Test and one way ANOVA. […]

`CC[C@@H](O)/C=C/C=C\C[C@@H](O)/C=C/C=C/C=C\[C@@H](O)CCCC(=O)O` [Compound X] was tested, and the “ex vivo LPS-stimulated cytokine production in whole blood” value [1] was “inhibited; also recorded: significantly lower”, the “clinical symptoms of arthritis (clinical scoring in the paws)” value ([2]; once daily i.v. at both 0.5 and 5.0 μg/kg, vs arthritic control) was “inhibited” and the “pannus formation and bone loss (histologic scoring)” value ([2]; once daily i.v. at both 0.5 and 5.0 μg/kg, vs vehicle control) was “reduced”. The “score of bone damage (histologic scoring in joints)” value ([2]; twice daily 5 μg/kg i.v., vs vehicle control) was “significant decrease”.

Reference: patent US20090137527A1, “Compositions and methods for modulating immune function” (Resolvyx Pharmaceuticals, Inc., priority 2007, published 2009)
